Assays:
[1] = Stability of crystal form E spread flat in the air under lighting, heating and high humidity, purity by HPLC; type: physicochemical; conditions: for Purity detected by HPLC, 40° C.: heating 40° C.; for Purity detected by HPLC, 60° C.: heating 60° C.; for Purity detected by HPLC, RH 75%: high humidity RH 75%; for Purity detected by HPLC, RH 90%: high humidity RH 90%; for Purity detected by HPLC, Lighting: lighting 4500 Lux
Procedure: Samplings were carried out on Day 5 and Day 10.

[2] = Stability under placement condition (30° C., RH 65%), HPLC purity and X-ray powder diffraction; type: physicochemical; conditions: for Crystal form (X-ray powder diffraction) / Purity determined by HPLC: 30° C.
Procedure: Samplings were carried out on Day 5, Day 10, and Day 30.

[3] = Special stability study: grinding, heating, tableting (crystal form, DSC); type: physicochemical
[4] = placebo-controlled phase III clinical trial; cited from earlier work
[5] = Drying at 80° C. of crystal product crystallized with butyl acetate; type: physicochemical; conditions: crystal product from butyl acetate dried at 80° C.

SMILES: CC[C@H]1[C@@H](O)[C@@H]2[C@H](CC[C@]3(C)[C@@H]([C@H](C)CCC(=O)O)CC[C@@H]23)[C@@]2(C)CC[C@@H](O)C[C@@H]12 [Crystal form E, obeticholic acid]
- Purity detected by HPLC, 40° C. ([1]; day 0): 99.7%
- Purity detected by HPLC, 40° C. ([1]; day 5): 99.6%
- Purity detected by HPLC, 40° C. ([1]; day 10): 99.5%
- Purity detected by HPLC, 60° C. ([1]; day 0): 99.7%
- Purity detected by HPLC, 60° C. ([1]; day 5): 99.4%
- Purity detected by HPLC, 60° C. ([1]; day 10): 99.1%
- Purity detected by HPLC, RH 75% ([1]; day 0): 99.7%
- Purity detected by HPLC, RH 75% ([1]; day 5): 99.7%
- Purity detected by HPLC, RH 75% ([1]; day 10): 99.7%
- Purity detected by HPLC, RH 90% ([1]; day 0): 99.7%
- Purity detected by HPLC, RH 90% ([1]; day 5): 99.6%
- Purity detected by HPLC, RH 90% ([1]; day 10): 99.5%
- Purity detected by HPLC, Lighting ([1]; day 0): 99.7%
- Purity detected by HPLC, Lighting ([1]; day 5): 99.6%
- Purity detected by HPLC, Lighting ([1]; day 10): 99.6%
- Stability (in words) ([1]; lighting, high temperature and high humidity (summary statement)): stable
- Stability (in words) ([1]; spread flat in the air, high temperature): slightly degraded
- Stability (in words) ([1]; spread flat in the air, lighting/high humidity): good stability
- Crystal form (X-ray powder diffraction) ([2]; Day 0): Crystal form E
- Purity determined by HPLC ([2]; Day 0): 99.75%
- Crystal form (X-ray powder diffraction) ([2]; Day 5): Crystal form E
- Purity determined by HPLC ([2]; Day 5): 99.72%
- Crystal form (X-ray powder diffraction) ([2]; Day 10): Crystal form E
- Purity determined by HPLC ([2]; Day 10): 99.73%
- Crystal form (X-ray powder diffraction) ([2]; Day 30): Crystal form E
- Purity determined by HPLC ([2]; Day 30): 99.70%
- Stability (in words) ([2]; placement condition 30° C., up to Day 30): stable under the placement condition
- DSC peak ([3]; after grinding treatment for 10 minutes in a mortar under nitrogen): 94.3 °C
- DSC peak ([3]; after heating treatment for 3 hours at 80° C.): 94.5 °C
- DSC peak ([3]; after tableting treatment): 94.6 °C
- Stability of the crystal form (in words) ([3]; ground, heated or tableted (grinding, pressure and heating)): the crystal form was stable

SMILES: CC[C@H]1[C@@H](O)[C@@H]2[C@H](CC[C@]3(C)[C@@H]([C@H](C)CCC(=O)O)CC[C@@H]23)[C@@]2(C)CC[C@@H](O)C[C@@H]12 [obeticholic acid]
- Biomarkers associated with reduced risk of liver transplantation [4]: increases the level of two biomarkers associated with reduced risk of liver transplantation
- Thermal stability on drying (colour change, degradation) [5]: unstable at 80 °C and has undergone degradation
